The test system of test [1] is Rattus norvegicus. Description: In vivo inhibition of galactitol accumulation in diaphragm of rat at 15 mg/kg/day. It counts as functional.
In test [2] the test system is Rattus norvegicus. Briefly: In vivo inhibition of galactitol accumulation in sciatic nerves of rat at 25 mg/kg/day. It counts as functional. The note with it: Sciatic nerve.
In test [3] the target is Aldo-keto reductase family 1 member B1 (Bos taurus) (UniProt P16116). Description: In vitro % decrease of aldose reductase measured in isolated partially purified bovine lens preparations at 10e-7 M concentration.
The species entered for test [4] is Rattus norvegicus. Briefly: (§1) In vitro inhibition of sorbitol accumulation was measured in rat sciatic nerves incubated in the presence of 50 mM glucose at 10e-6 M concentration. It counts as functional, Sciatic nerve.
The test system of test [5] is Rattus norvegicus. Briefly: In vivo inhibition of galactitol accumulation in diaphragm of rat at 25 mg/kg/day. In kind it is functional.
Test [6] has as its system Rattus norvegicus. Description: In vivo inhibition of galactitol accumulation in sciatic nerves of rat at 15 mg/kg/day. The conditions noted are these: Sciatic nerve. In kind it is functional.
The species named for test [7] is Rattus norvegicus. Description: (§2) In vitro inhibition of sorbitol accumulation was measured in rat sciatic nerves incubated in the presence of 50 mM glucose at 10e-5 M concentration. In kind it is functional, Sciatic nerve.
The test system of test [8] is Rattus norvegicus. Briefly: In vivo inhibition of galactitol accumulation in sciatic nerves of rat at 65 mg/kg/day; Not significant. In kind it is functional, organism-based. The note with it: Sciatic nerve.
Test [9] has as its system Rattus norvegicus. Briefly: In vivo inhibition of galactitol accumulation in diaphragm of rat at 65 mg/kg/day. It counts as functional.
The subject of test [10] is Rattus norvegicus. Description: In vivo inhibition of galactitol accumulation in sciatic nerves of rat at 6 mg/kg/day. It counts as functional. The conditions noted are these: Sciatic nerve.
The species named for test [11] is Rattus norvegicus. Briefly: inhibition of aldose reductase activity was measured by measuring sorbitor accumulation in the sciatic nerves of STZ diabetic rat. It counts as functional. The note with it: Sciatic nerve.
The species entered for test [12] is Rattus norvegicus. Description: inhibition of aldose reductase activity was measured by measuring […] in the sciatic nerves of galactose fed rat. It counts as functional. The note with it: Sciatic nerve.
Test [13] has as its system Rattus norvegicus. Description: In vivo inhibition of galactitol accumulation in diaphragm of rat at 6 mg/kg/day. In kind it is functional.
Test [14] is filed under the species Rattus norvegicus. Briefly: Inhibition of galactitol accumulation in rat lens incubated in presence of 50 mM glucose. In kind it is functional, organism-based. The note with it: Lens of camera-type eye.
Test [15] is filed under the species Rattus norvegicus. Briefly: Inhibition of galactitol accumulation in sciatic nerves of rat incubated in presence of 50 mM glucose. In kind it is functional, organism-based. The conditions noted are these: Sciatic nerve.
For test [16], the species on record is Rattus norvegicus. Description: inhibition of aldose reductase activity was measured by measuring […] in the RBC of galactose fed rat. In kind it is functional.
Test [17] is filed under the species Rattus norvegicus. Description: Inhibition of galactitol accumulation in rat RBC incubated in presence of 50 mM glucose. It counts as functional, organism-based.
The test system of test [18] is Rattus norvegicus. Description: In vivo inhibition of galactitol accumulation in sciatic nerves of rat at 24 mg/kg/day. It counts as functional. The note with it: Sciatic nerve.
The subject of test [19] is Rattus norvegicus. Briefly: In vivo inhibition of galactitol accumulation in diaphragm of rat at 20 mg/kg/day; Not significant. It counts as functional, organism-based.
Test [20] has as its target Aldo-keto reductase family 1 member B1 (Bos taurus) (UniProt P16116). Description: In vitro % decrease of aldose reductase was measured in isolated partially purified bovine lens preparations at 10e-7 M concentration; Not active.
Test [21] relates to Rattus norvegicus. Description: In vivo inhibition of galactitol accumulation in sciatic nerves of rat at 20 mg/kg/day; Not significant. In kind it is functional, organism-based. The note with it: Sciatic nerve.
In test [22] the test system is Rattus norvegicus. Description: In vivo inhibition of galactitol accumulation in diaphragm of rat at 24 mg/kg/day. It counts as functional.
The species entered for test [23] is Rattus norvegicus. Briefly: Inhibition of aldose reductase activity was measured by measuring […] in the RBC of galactose fed rat. It counts as functional.
The subject of test [24] is Rattus norvegicus. Briefly: In vivo inhibition of galactitol accumulation in diaphragm of rat at 5 mg/kg/day. In kind it is functional.
The species named for test [25] is Rattus norvegicus. Description: Inhibition of aldose reductase activity was measured by measuring […] in the sciatic nerves of galactose fed rat. It counts as functional. The note with it: Sciatic nerve.
The species named for test [26] is Rattus norvegicus. Briefly: Inhibition of aldose reductase activity was measured by measuring sorbitor accumulation in the sciatic nerves of STZ diabetic rat. It counts as functional. The note with it: Sciatic nerve.
Test [27] concerns the target T1, Aldo-keto reductase family 1 member B1 (Bos taurus, UniProt P16116). Description: Inhibition of aldose reductase activity was measured on partially purified bovine lens preparations incubated in presence of 50 mM glucose.
Test [28] has as its system Rattus norvegicus. Briefly: In vivo inhibition of galactitol accumulation in sciatic nerves of rat at 10 mg/kg/day. It counts as functional. The conditions noted are these: Sciatic nerve.
Test [29] has as its system Rattus norvegicus. Briefly: In vivo inhibition of galactitol accumulation in sciatic nerves of rat at 5 mg/kg/day. It counts as functional. The note with it: Sciatic nerve.
For test [30], the system named is Rattus norvegicus. Description: In vivo inhibition of galactitol accumulation in diaphragm of rat at 10 mg/kg/day. It counts as functional.
The species entered for test [31] is Rattus norvegicus. Described as §2. The note with it: Sciatic nerve. In kind it is functional.
The test system of test [32] is Rattus norvegicus. Description: Effective dose of aldose reductase was evaluated by measuring galactitol accumulation in sciatic nerves of rat at 5 mg/kg/day. It counts as functional. The conditions noted are these: Sciatic nerve.
The species entered for test [33] is Rattus norvegicus. The test is described as §1. The note with it: Sciatic nerve. It counts as functional.
The target of test [34] is T1, Aldo-keto reductase family 1 member B1. Description: In vitro Inhibition of aldose reductase was measured in isolated partially purified bovine lens preparations at 10e-7 M concentration.
Test [35] is filed under the species Rattus norvegicus. Briefly: % inhibition of aldose reductase was measured in rat serbital sciatic nerves incubated in the presence of 50 mM glucose at 10e-6 M concentration. In kind it is functional, Sciatic nerve.
The subject of test [36] is Rattus norvegicus. Briefly: In vivo inhibition of galactitol accumulation in sciatic nerves of rat at 5 mg/kg/day; Not significant. It counts as functional, organism-based. The note with it: Sciatic nerve.
For test [37], the system named is Rattus norvegicus. Briefly: In vivo inhibition of galactitol accumulation in diaphragm of rat at 133 mg/kg/day. It counts as functional.
The test system of test [38] is Rattus norvegicus. Briefly: In vivo inhibition of galactitol accumulation in sciatic nerves of rat at 133 mg/kg/day. It counts as functional. The note with it: Sciatic nerve.
Test [39] relates to Rattus norvegicus. Description: In vivo inhibition of galactitol accumulation in diaphragm of rat at 19 mg/kg/day. In kind it is functional.
The subject of test [40] is Rattus norvegicus. Briefly: In vivo inhibition of galactitol accumulation in sciatic nerves of rat at 19 mg/kg/day. It counts as functional. The conditions noted are these: Sciatic nerve.
The test system of test [41] is Rattus norvegicus. Briefly: In vivo inhibition of galactitol accumulation in sciatic nerves of rat at 112 mg/kg/day; Not significant. It counts as functional, organism-based. The note with it: Sciatic nerve.
The subject of test [42] is Rattus norvegicus. Description: % reduction of aldose reductase inhibition was evaluated by measuring galactitol accumulation in diaphragm of rat at 112 mg/kg/day; Not significant. In kind it is functional, organism-based.
For test [43], the system named is Rattus norvegicus. Briefly: In vivo inhibition of galactitol accumulation in sciatic nerves of rat at 114 mg/kg/day; Not significant. In kind it is functional, organism-based. The note with it: Sciatic nerve.
For test [44], the system named is Rattus norvegicus. Description: In vivo inhibition of galactitol accumulation in diaphragm of rat at 114 mg/kg/day; Not significant. It counts as functional, organism-based.

pIC50: −log10 of the molar value. Active and inactive are the calls of the source. The calls are words filed in the database; no cut-off is given here. Where only a bound is given, the exact number is not on record here.

Take `CCOC(=O)N(CC(=O)O)C(=O)c1c(F)ccc2c(C(F)(F)F)c(OC)ccc12`: the inhibition in vivo at 15 mg/kg/day worked out at 59% in the test on Rattus norvegicus [1] and 55% in the test with Rattus norvegicus [6]. Also, the values for the inhibition in vivo at 25 mg/kg/day in the test with Rattus norvegicus [2] and in the test on Rattus norvegicus [5] were 70% and 65%, respectively. Further, the inhibition in [3] amounted to 87%. Further, the Inhibition in the test listed under Rattus norvegicus [4] stood at 51%; in the test filed under Rattus norvegicus [7] it was 75%.

Compound `COc1ccc2c(C(=O)N(C)CC(=O)O)c(OCc3ccccc3)ccc2c1C(F)(F)F` registered an inhibition in test [3] of 73%. The inhibition result with Rattus norvegicus [8] was “inactive”. Also, the inhibition in vivo at 65 mg/kg/day in the test with Rattus norvegicus [9] amounted to 23%.

Regarding `COc1ccc2c(C(=S)N(C)CC(=O)O)cccc2c1C(F)(F)F` [TOLRESTAT], the inhibition in vivo at 6 mg/kg/day in the test on Rattus norvegicus [10] stood at 53%; in the test on Rattus norvegicus [13], 80%. The ED50 is 4.8 mg/kg in the test listed under Rattus norvegicus [11], 6.4 mg/kg in the test listed under Rattus norvegicus [12] and below 2 mg/kg in the test listed under Rattus norvegicus [16]. For the same compound, the Inhibition is given as 61% in the test filed under Rattus norvegicus [4] and 82% in the test listed under Rattus norvegicus [7]. The pIC50 is 6.00 in the test listed under Rattus norvegicus [14], 6.27 in the test listed under Rattus norvegicus [15] and 7.82 in the test listed under Rattus norvegicus [17].

Consider `COc1ccc2c(C(=S)N(C)CC(N)=O)cc(C)cc2c1Br`, for which the inhibition in vivo at 24 mg/kg/day with Rattus norvegicus [18] came to 68%; in the test on Rattus norvegicus [22], 70%. The inhibition result (in the test on Rattus norvegicus [19]; in test [20]; in the test on Rattus norvegicus [21]) was “inactive” in each case.

Turning to `COC(=O)N(CC(=O)O)C(=O)c1c(F)ccc2c(C(F)(F)F)c(OC)ccc12`, the ED50 in the test filed under Rattus norvegicus [23] was 3.5 mg/kg; in the test listed under Rattus norvegicus [25], 4.8 mg/kg; in the test listed under Rattus norvegicus [26], 4 mg/kg. The inhibition in vivo at 5 mg/kg/day in the test on Rattus norvegicus [24] was determined as 52%; in the test with Rattus norvegicus [29], 50%. For the same compound, the inhibition in [3] stood at 86%. For the same compound, the pIC50 in [27] was 7.60; in the test filed under Rattus norvegicus [14], 6.47; in the test listed under Rattus norvegicus [15] it was 5.55; in the test listed under Rattus norvegicus [17], 7.72. The values for the inhibition in vivo at 10 mg/kg/day in the test with Rattus norvegicus [28] and in the test on Rattus norvegicus [30] were 61% and 62%, respectively. Besides, the Inhibition in the test filed under Rattus norvegicus [4] turned out to be 36%; in the test listed under Rattus norvegicus [7], 61%.

Regarding `O=C(O)Cc1nn(Cc2ccc(Br)cc2F)c(=O)c2ccccc12` [PONALRESTAT], the pIC50 in the test listed under Rattus norvegicus [31] is 5.85; in the test listed under Rattus norvegicus [33] it was 7.43; in test [34], 7.43. Also, the figures for the inhibition in vivo at 5 mg/kg/day in the test with Rattus norvegicus [24] and in the test with Rattus norvegicus [29] were 63% and 61%, respectively. In the test with Rattus norvegicus [32], the ED50 was 4 mg/kg. In addition, the Inhibition was found to be 35% in the test listed under Rattus norvegicus [35] and 100% in the test listed under Rattus norvegicus [7].

Turning to `O=C(O)Cc1nn(Cc2nc3cc(C(F)(F)F)ccc3s2)c(=O)c2ccccc12` [ZOPOLRESTAT], the inhibition in vivo at 5 mg/kg/day in the test on Rattus norvegicus [24] came to 88%. The inhibition in test [3] was 89%. In addition, the inhibition result with Rattus norvegicus [36] was “inactive”. For the same compound, the inhibition in vivo at 10 mg/kg/day in the test with Rattus norvegicus [28] amounted to 70%; with Rattus norvegicus [30], 80%.

Regarding `COc1ccc2c(C(=S)N(C)CC(=O)O)cc(-c3ccccc3)cc2c1Br`, in [3], the inhibition worked out at 81%. The inhibition in vivo at 133 mg/kg/day came to 85% with Rattus norvegicus [37] and 58% in the test with Rattus norvegicus [38]. For the same compound, the Inhibition in the test listed under Rattus norvegicus [4] worked out at 30%; in the test filed under Rattus norvegicus [7], 68%.

Turning to `COc1c(C)cc2c(C(=O)N(C)CC(=O)O)cccc2c1Br`, the inhibition in vivo at 19 mg/kg/day in the test with Rattus norvegicus [39] worked out at 63%; with Rattus norvegicus [40], 77%. Further, the inhibition entry in the test with Rattus norvegicus [41] and in the test on Rattus norvegicus [42] was “inactive” each time. The inhibition in test [3] turned out to be 20%.

With `COc1ccc2c(C(=O)N(C)CC(=O)O)cc(C)cc2c1Br`, in test [3], the inhibition is 63%. Further, the inhibition result with Rattus norvegicus [43] and in the test on Rattus norvegicus [44] was “inactive” in each case. Also, the Inhibition worked out at 20% in the test filed under Rattus norvegicus [4] and 52% in the test listed under Rattus norvegicus [7].

The values are drawn from ChEMBL document CHEMBL1125860 (J Med Chem, 1991).
